Results: the NIST ThermoML archive (doi:10.1016/j.jct.2012.11.011)
± gives the expanded uncertainty stated by the source.

Settings: Liquid, Vibrating tube method

Row | SMILES | mass density (288.15 K, 100 kPa) [kg/m3] | mass density (288.15 K, 5000 kPa) [kg/m3] | mass density (288.15 K, 10000 kPa) [kg/m3] | mass density (288.15 K, 20000 kPa) [kg/m3] | mass density (288.15 K, 30000 kPa) [kg/m3] | mass density (288.15 K, 40000 kPa) [kg/m3] | mass density (298.15 K, 100 kPa) [kg/m3] | mass density (298.15 K, 5000 kPa) [kg/m3] | mass density (298.15 K, 10000 kPa) [kg/m3] | mass density (298.15 K, 20000 kPa) [kg/m3] | mass density (298.15 K, 30000 kPa) [kg/m3] | mass density (298.15 K, 40000 kPa) [kg/m3] | mass density (308.15 K, 100 kPa) [kg/m3] | mass density (308.15 K, 5000 kPa) [kg/m3] | mass density (308.15 K, 10000 kPa) [kg/m3] | mass density (308.15 K, 20000 kPa) [kg/m3] | mass density (308.15 K, 30000 kPa) [kg/m3] | mass density (308.15 K, 40000 kPa) [kg/m3]
1 | CCCCCCCCCC [decane] | 733.6 ± 0.3 | 737.2 ± 0.3 | 740.7 ± 0.4 | 747.2 ± 0.5 | 753.2 ± 0.5 | 758.9 ± 0.6 | 726 ± 0.3 | 730.2 ± 0.3 | 733.5 ± 0.4 | 740.3 ± 0.5 | 746.5 ± 0.5 | 752.2 ± 0.6 | 718.3 ± 0.3 | 722.4 ± 0.3 | 726.2 ± 0.4 | 733.4 ± 0.5 | 740 ± 0.5 | 745.9 ± 0.6
2 | CCOC(=O)OCC [diethyl carbonate] | 980.3 ± 0.2 | 984.5 ± 0.2 | 988.6 ± 0.2 | 996.3 ± 0.2 | 1003.6 ± 0.2 | 1010.5 ± 0.2 | 968.9 ± 0.3 | 973.8 ± 0.3 | 977.8 ± 0.2 | 986 ± 0.2 | 993.6 ± 0.2 | 1000.8 ± 0.2 | 957.7 ± 0.3 | 962.4 ± 0.3 | 967.1 ± 0.3 | 975.7 ± 0.3 | 983.8 ± 0.2 | 991.3 ± 0.2
3 | COC(=O)OC [dimethyl carbonate] | 1076.5 ± 0.4 | 1080.6 ± 0.4 | 1084.8 ± 0.4 | 1092.8 ± 0.4 | 1100.3 ± 0.5 | 1107.5 ± 0.5 | 1062.9 ± 0.4 | 1068 ± 0.4 | 1072.1 ± 0.4 | 1080.5 ± 0.4 | 1088.5 ± 0.4 | 1095.9 ± 0.5 | 1049.4 ± 0.3 | 1054.6 ± 0.4 | 1059.4 ± 0.4 | 1068.3 ± 0.4 | 1076.7 ± 0.4 | 1084.5 ± 0.5
4 | CCCCCCCC [octane] | 706.6 ± 0.3 | 710.9 ± 0.4 | 714.7 ± 0.4 | 721.7 ± 0.5 | 728.1 ± 0.6 | 734.3 ± 0.7 | 698.6 ± 0.3 | 703.4 ± 0.4 | 707 ± 0.4 | 714.6 ± 0.5 | 721.4 ± 0.6 | 727.7 ± 0.7 | 690.5 ± 0.3 | 695 ± 0.4 | 699.4 ± 0.4 | 707.3 ± 0.5 | 714.5 ± 0.6 | 720.8 ± 0.7
